Assay [1] has as its target T1, Ku antigen (Ku70/Ku80 heterodimer) (Mus musculus, UniProt P23475+P27641).
T1 construct: from tissue; host or cells: mouse liver (BALB/c)
In words: EMSA inhibition study: cold ODN vs [32P]-labeled ds-ISS-ODN binding to Ku (affinity column fraction 20). How it is done:
Purification of the ISS binding protein was accomplished by sequential ion exchange, heparin and ISS-ODN affinity chromatography, as follows. Due to the relative small tissue weight per spleen, liver lysate was used after confirming its reactivity to in vivo ISS injection, as described above. Crude liver extracts from 220 mice (BALB/c, Jackson Lab., Bar Harbour, Me.) or 15 New Zealand White rabbits (Simunek, Vista, Calif.) were prepared in homogenization buffer (20 mM HEPES, pH 7.6, 250 mM KCl, 0.1 mM EDTA, 0.5 mM EGTA, 20% glycerol) with 250 mM KCl and protease and phosphatase inhibitors and then centrifuged at 100,000×g for 1.5 hours at 4° C. The supernatant (400 ml) was filtered and loaded onto a Porous 20 QE column (17 ml, Pharmacia). Two μl (10 μg) of each fraction were used in a gel retardation assay to identify the location of proteins containing DNA binding activity using [^32P]-labeled ds-ISS-ODN as a probe. Fractions containing ISS-ODN binding activity were pooled (450 ml), buffered exchanged to low salt (50 mM KCl) and loaded onto a Heparin column (2 ml). The active fractions were subsequently loaded onto a 2 ml ds-ISS-ODN affinity column [CNBr-activated Sepharose 4B (Pharmacia) coupled to 320 μg of ds-ISS-ODNs with the sequence 5′-[…]-3′; SEQ ID NO: 21]. The column was washed with 8 ml of homogenization buffer containing 50 mM KCl and the bound proteins were eluted with a 20 ml linear gradient of 50 mM to 1.55 M KCl. One-ml fractions were collected and 2 μl of each were used to test for DNA binding activity. The active fractions were concentrated, separated by SDS-PAGE and stained with Coomassie Blue. The appearance of two bands with estimated molecular weights of 70 KDa and 80 KDa correlated with the DNA binding activity. Sequence analysis (Harvard Microsequencing Facility) of peptides derived from the two bands identified Ku70 and Ku80, respectively.
Mouse liver extracts were purified through anion (QE), heparin and ISS-based affinity chromatography, as described above. Two μl of each fraction (10 μg) were incubated with [^32 P]-labeled ds-ISS-ODN at 4° C. for 30 minutes. The samples were separated on a 5% acrylamide gel and the protein-DNA complexes were detected by autoradiography. […] The active fractions were separated by sodium dodecyl sulfate-polyacrylamide gel electrophoresis (SDS-PAGE), stained with Coomassie blue and micro-sequenced.
To verify the binding specificity of the Ku protein to ISS-ODN, inhibition studies were performed using cold ss or ds ISS or mutated (M, i.e., control) ODNs. Ten μg of fraction 20 from the affinity column were incubated with [^32P]-labeled ISS-ODN in the presence of unlabeled (0.1, 0.2 and 0.4 μg, respectively) ss-ISS-ODN (lanes 3-5), ds-ISS-ODN (lanes 7-9), ss-M-ODN (lanes 11-13) or ds-M-ODN (lanes 15-17).
On the technique in general: Mobility shift assays separate free from complexed probe on a gel.

The next assay deals with IκB kinase (IKK) complex. In words: IKK kinase assay on IKK complex immunoprecipitated from treated BMDM (IκBα N-terminus substrate). Format: cell-based, mice. The method, then:
(§1) Kinase assays and immunoblotting were performed according to Li et al. ((1999) J. Exp. Med. 189:1839-1845). Briefly, BMDM were treated with ISS-ODN (5 μg/ml), M-ODN (5 μg/ml) on ps and po backbones as indicated, LPS-free bacterial DNA or methylated bacterial DNA (5 μg/ml), LPS-free calf thymus DNA (5 μg/ml), LPS (10 μg/ml) or TNFα (10 ng/ml) for the indicated time periods. Cell lysates were prepared and normalized by immunoblotting (IB) with anti-IKKα polyclonal antibodies (Santa Cruz, Santa Cruz Biotech Inc., Calif.), anti-IKKβ polyclonal antbodies (Santa Cruz) or anti-DNA-PKcs monoclonal antibodies (NeoMarker, Calif.). IκB kinase (IKK) complex or DNA-PK complex from 100 μg of the lysates were immunoprecipitated by anti-IKKα or by anti-DNA-PKcs antibodies. The kinase activities (KA) were determined by a kinase assay using the N-terminus of IκBα (for IKK) or the N-terminus of p53 (for DNA-PK) as a substrate as previously described. Wang et al. (1992) Proc. Natl. Acad. Sci. USA 89:4231-4235; Li et al.(1999), supra; and Hammarsten et al. (2000) J. Biol. Chem. 275:1541-1545.

The target of assay [2] is T2, DNA-PK (Mus musculus, UniProt P23475+P27641+P97313).
T2 construct: endogenous in cells; host or cells: mouse bone marrow-derived macrophages (BMDM)
In words: DNA-PK activity in treated BMDM by immune-complex kinase assay. It is filed as cell-based, mice. The conditions noted are these: wt BMDM. How it is done:
as §1
(§2) To further determine whether ISS-ODN, po-ISS-ODN or bacterial DNA activate DNA-PK in cells, we treated BMDM from either wt or DNA-PKcs-deficient mice with ISS-ODN, po-ISS-ODN, bacterial DNA or LPS as a control.

Assay [3] deals with DNA-PK. The assay is described as above. Format: cell-based, mice. The conditions noted are these: DNA-PKcs-deficient BMDM. How it is done:
as §1, §2

The next assay deals with HSP70. As to the kind of experiment: RT-PCR for induction of heat shock protein gene transcription in BMDM. Format: cell-based, mouse. How it is done: A half million mouse BMDM isolated from BALB/c, IFNα receptor knockout, or IFNγ knockout mice were incubated with ISS-ODN or M-ODN at a final concentration of 10 μg/ml. After 0, 1, 2, 4, 6, and 8 hours, total RNA was prepared and analyzed by RT-PCR (reverse transcription-polymerase chain reaction) for induction of gene transcription of heat shock proteins. The sequences of the primers used is as follows: […]

The values that follow come from patent US6893821B2, “Agents that modulate DNA-PK activity and methods of use thereof” (The Regents of the University of California, priority 2000, dated 2005).

T1 sequence (P23475 2-608 limits assumed): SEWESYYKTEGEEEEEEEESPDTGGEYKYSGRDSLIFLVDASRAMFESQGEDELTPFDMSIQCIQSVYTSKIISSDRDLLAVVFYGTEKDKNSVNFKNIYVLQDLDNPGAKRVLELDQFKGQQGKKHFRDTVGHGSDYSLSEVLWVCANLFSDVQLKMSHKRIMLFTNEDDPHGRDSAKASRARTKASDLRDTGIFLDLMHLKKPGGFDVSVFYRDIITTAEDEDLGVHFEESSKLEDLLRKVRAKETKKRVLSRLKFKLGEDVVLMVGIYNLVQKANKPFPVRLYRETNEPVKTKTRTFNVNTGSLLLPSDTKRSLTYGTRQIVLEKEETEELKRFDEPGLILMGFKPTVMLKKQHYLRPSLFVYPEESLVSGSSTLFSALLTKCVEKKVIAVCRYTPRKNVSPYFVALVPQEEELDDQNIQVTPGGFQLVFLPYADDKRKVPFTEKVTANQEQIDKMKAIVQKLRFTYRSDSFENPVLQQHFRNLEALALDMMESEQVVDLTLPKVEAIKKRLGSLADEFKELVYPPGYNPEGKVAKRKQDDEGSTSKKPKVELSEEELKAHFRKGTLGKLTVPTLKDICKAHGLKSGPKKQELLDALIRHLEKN
T1 sequence (P27641 whole entry): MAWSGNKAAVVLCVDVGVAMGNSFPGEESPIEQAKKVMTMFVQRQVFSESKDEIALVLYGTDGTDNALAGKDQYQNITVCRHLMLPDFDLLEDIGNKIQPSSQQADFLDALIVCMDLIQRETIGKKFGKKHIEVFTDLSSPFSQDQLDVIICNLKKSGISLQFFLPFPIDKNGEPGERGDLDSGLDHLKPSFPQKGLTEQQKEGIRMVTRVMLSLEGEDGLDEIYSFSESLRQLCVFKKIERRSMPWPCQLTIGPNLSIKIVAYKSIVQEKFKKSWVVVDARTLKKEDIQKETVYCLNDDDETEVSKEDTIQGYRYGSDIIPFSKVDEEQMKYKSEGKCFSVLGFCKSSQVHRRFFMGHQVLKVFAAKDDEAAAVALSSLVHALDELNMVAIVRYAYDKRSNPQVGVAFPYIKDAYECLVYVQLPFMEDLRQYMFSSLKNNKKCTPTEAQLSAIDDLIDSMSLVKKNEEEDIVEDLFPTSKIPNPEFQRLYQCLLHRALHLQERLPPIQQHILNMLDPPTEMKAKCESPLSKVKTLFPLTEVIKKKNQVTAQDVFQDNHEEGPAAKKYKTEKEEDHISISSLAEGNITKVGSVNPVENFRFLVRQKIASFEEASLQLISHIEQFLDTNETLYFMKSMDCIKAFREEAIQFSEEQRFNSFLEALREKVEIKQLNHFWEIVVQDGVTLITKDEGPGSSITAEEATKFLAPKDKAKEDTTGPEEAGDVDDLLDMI

Regarding 5′-TGACTGTGAACGTTCGAGATGA-3′ [ISS-ODN], the “interaction of Ku with ODN” value in assay [1] is “specific interaction”. Besides, in the assay on IκB kinase (IKK) complex (ATM-deficient BMDM), the “IKK activation, wt vs ATM-deficient BMDM” value is given as “no differences were observed”. For the same substance, the IKK activation result is on record as “little increase in IKK activity” in the assay with IκB kinase (IKK) complex (DNA-PKcs-/- BMDM as compared to wt), “prevented” in the assay on IκB kinase (IKK) complex (IKKβ-/- Tnfr-/- BMDM (absence of IKKβ)) and “robust IKK activation” in the assay on IκB kinase (IKK) complex (wt BMDM). Besides, the “duration of IKK activation” value in the assay with IκB kinase (IKK) complex (wt BMDM) is on record as “about 4 hrs”. The “time of maximal IKK activation post incubation” value with IκB kinase (IKK) complex (wt BMDM) came out at 30 min. In the assay with IκB kinase (IKK) complex (wt BMDM (FIG. 5B)), the “ISS-ODN concentration of optimal IKK activation” value came out at 0.65 µg/mL. The “time of peak DNA-PK activity” value at DNA-PK [2] was 1 h. For the same substance, the “DNA-PK activity in cells” value at DNA-PK [2] (30-minute incubation) is “Considerable DNA-PK activity”; in the assay with DNA-PK [3], “Little or no DNA-PK activity”. For the same substance, the “induction of HSP-70 gene transcription” value in the assay on HSP70 (BMDM from IFN type 1 receptor knockout mice) is listed as “did not result in induction of HSP-70”. The “induction of inducible HSP-70 gene transcription” value in the assay on HSP70 (BMDM, 10 μg/ml, 0-8 hours) is on record as “induces inducible HSP-70”.
